Our source for the Ki and IC50 values is US9732088B2, “C2-carbocyclic iminothiazine dioxides as BACE inhibitors, compositions, and their use” (Merck Sharp & Dohme Corp., priority 2014, dated 2017).

Test [1] concerns the target soluble human BACE-1 catalytic domain (Homo sapiens (Human), UniProt P56817). As to the kind of experiment: BACE-1 Ki Assay (BACE-1 HTRF FRET Assay). The following applies: Assay 1; Ki calculated from IC50 by Cheng-Prusoff. Type of test: biochemical. How it is done: Assay 1: BACE-1 Ki Assay (BACE-1 HTRF FRET Assay)
The compounds of the invention were determined to be potent inhibitors of BACE-1 using the following assay.
The following reagents were used in this assay. Na^+-Acetate pH 5.0; 1% Brij-35; Glycerol; Dimethyl Sulfoxide (DMSO); Recombinant human soluble BACE-1 catalytic domain (>95% pure); APP Swedish mutant peptide substrate (QSY7-APP^swe-Eu): QSY7-[…]-Europium-amide.
A homogeneous time-resolved FRET assay can be used to determine IC50 values for inhibitors of the soluble human BACE-1 catalytic domain. This assay monitors the increase of 620 nm fluorescence that resulted from BACE-1 cleavage of an APPswedish APP^swe mutant peptide FRET substrate (QSY7-[…]-Europium-amide). This substrate contains an N-terminal QSY7 moiety that serves as a quencher of the C-terminal Europium fluorophore (620 nm Em). In the absence of enzyme activity, 620 nm fluorescence is low in the assay and increased linearly over 3 hours in the presence of uninhibited BACE-1 enzyme. Inhibition of BACE-1 cleavage of the QSY7-APP^swe-Eu substrate by inhibitors is manifested as a suppression of 620 nm fluorescence.
Varying concentrations of inhibitors at 3× the final desired concentration in a volume of […] are preincubated with purified human BACE-1 catalytic domain (3 nM in 10 μl) for 30 minutes at 30° C. in reaction buffer containing 20 mM Na-Acetate pH 5.0, 10% glycerol, 0.1% Brij-35 and 7.5% DSMO. Reactions are initiated by addition of 10 μl of 600 nM QSY7-APP^swe-Eu substrate (200 nM final) to give a final reaction volume of 30 μl in a 384 well Nunc HTRF plate. The reactions are incubated at 30° C. for 1.5 hours. The 620 nm fluorescence is then read on a Rubystar HTRF plate reader (BMG Labtechnologies) using a […] delay followed by a 400 millisecond acquisition time window. Inhibitor IC50 values are derived from non-linear regression analysis of concentration response curves. Ki values are then calculated from IC50 values using the Cheng-Prusoff equation using a previously determined […] of 8 μM for the QSY7-APP^swe-Eu substrate at BACE-1. The example compounds of the invention were measured in this assay.

The target in test [2] is purified human autoBACE-2 (Homo sapiens (Human), UniProt Q9Y5Z0). As to the kind of experiment: BACE-2 Assay (BACE-HTRF assay). The following applies: Assay 2; Ki calculated from IC50 by Cheng-Prusoff; read-out: BACE2 Ki. The test is classed as biochemical. The procedure:
The compounds of the invention were determined to be potent inhibitors of BACE-2 using the following assay. Inhibitor IC50s at purified human autoBACE-2 are determined in a time-resolved endpoint proteolysis assay that measures hydrolysis of the QSY7-[…]-Eu-amide FRET peptide substrate (BACE-HTRF assay). BACE-mediated hydrolysis of this peptide results in an increase in relative fluorescence (RFU) at 620 nm after excitation with 320 nm light Inhibitor compounds, prepared at 3× the desired final concentration in 1×BACE assay buffer (20 mM sodium acetate pH 5.0, 10% glycerol, 0.1% Brij-35) supplemented with 7.5% DMSO are pre-incubated with an equal volume of autoBACE-2 enzyme diluted in 1×BACE assay buffer (final enzyme concentration 1 nM) in black 384-well NUNC plates for 30 minutes at 30° C. […] DMSO is present at […] final concentration in the assay. Following laser excitation of sample wells at 320 nm, the fluorescence signal at 620 nm is collected for 400 ms following a 50 μs delay on a RUBYstar HTRF plate reader (BMG Labtechnologies). Raw RFU data is normalized to maximum (1.0 nM BACE/DMSO) and minimum (no enzyme/DMSO) RFU values. IC50 values are determined by nonlinear regression analysis (sigmoidal dose response, variable slope) of percent inhibition data with minimum and maximum values set to 0 and 100 percent respectively. Similar IC50s are obtained when using raw RFU data. The Ki values are calculated from the IC50 using the Cheng-Prusoff equation.

In another test the target is BACE-1 (Homo sapiens (Human), UniProt P56817). As to the kind of experiment: BACE-1 Cellular Assay (Aβ in HEK293-APPswe/lon cells). Type of test: cell-based. Particulars: 4 hours. How it is done:
Assay 3: BACE-1 Cellular Assay
Certain compounds of the invention, identified in the tables herein, were determined to be potent inhibitors of BACE-1 in the following cellular assay. HEK293 cells are obtained from the American Type Culture Collection (ATCC) and stably transfected with the human amyloid precursor protein cDNA containing the FAD Swedish (enhances β-secretase processing) and London (enhances Aβ42 cleavage) mutations. A HEK293 stable clone with Aβ expression (HEK293-APP^swe/lon) is identified and maintained at 37° C., 5% CO2 in the ATCC-recommended growth media supplemented with hygromycin. […] Aβ40 or Aβ42 are measured in 15 μl of media using a mesoscale based ELISA assay. Full length Aβ40 and Aβ42 peptides are captured with the N-terminal specific biotinylated-WO2 monoclonal antibody and detected using either the ruthenylated Aβ40 C-terminal specific monoclonal antibody, G2-10 or the ruthenylated Aβ42 C-terminal specific monoclonal antibody G2-11 respectively. Raw electrochemiluminescnce values are measured using a Mesoscale Sector Imager plate reader and are plotted as a function of compound concentration. IC50 values are interpolated from the data using nonlinear regression analysis (Sigmoidal dose response fit with variable slope) of the data using GraphPad Prism software.

For test [3], the target named is purified human Cathepsin-D (Homo sapiens (Human), UniProt P07339). As to the kind of experiment: Cathepsin-D Assay (time-resolved FRET).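 Further: Europium-labelled peptide substrate with QSY7 quencher, cleavage read as 620 nm fluorescence after 30 min preincubation then 30 min reaction at 30 °C, pH 5.0, inhibition lowers signal.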 Type of test: biochemical. Particulars: Assay 4; Ki calculated from IC50 by Cheng-Prusoff.

The term Ki denotes the dissociation constant of the complex between target and ligand, obtained from inhibition or displacement. The IC50 is the concentration at which inhibition is half-maximal.

Sequence of BACE-1 (P56817 46-501): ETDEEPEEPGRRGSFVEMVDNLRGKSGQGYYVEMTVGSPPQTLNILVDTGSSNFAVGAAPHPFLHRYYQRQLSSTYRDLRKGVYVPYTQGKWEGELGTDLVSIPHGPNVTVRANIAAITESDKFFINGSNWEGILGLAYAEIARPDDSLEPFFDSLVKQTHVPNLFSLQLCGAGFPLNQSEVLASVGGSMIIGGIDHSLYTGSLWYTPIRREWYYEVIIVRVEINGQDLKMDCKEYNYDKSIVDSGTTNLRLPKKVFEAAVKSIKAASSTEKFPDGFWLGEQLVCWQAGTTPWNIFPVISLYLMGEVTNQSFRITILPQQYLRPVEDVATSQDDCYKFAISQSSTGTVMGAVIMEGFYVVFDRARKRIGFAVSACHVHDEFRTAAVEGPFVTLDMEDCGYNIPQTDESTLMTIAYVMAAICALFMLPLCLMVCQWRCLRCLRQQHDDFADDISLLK
Sequence of soluble human BACE-1 catalytic domain (P56817 75-416): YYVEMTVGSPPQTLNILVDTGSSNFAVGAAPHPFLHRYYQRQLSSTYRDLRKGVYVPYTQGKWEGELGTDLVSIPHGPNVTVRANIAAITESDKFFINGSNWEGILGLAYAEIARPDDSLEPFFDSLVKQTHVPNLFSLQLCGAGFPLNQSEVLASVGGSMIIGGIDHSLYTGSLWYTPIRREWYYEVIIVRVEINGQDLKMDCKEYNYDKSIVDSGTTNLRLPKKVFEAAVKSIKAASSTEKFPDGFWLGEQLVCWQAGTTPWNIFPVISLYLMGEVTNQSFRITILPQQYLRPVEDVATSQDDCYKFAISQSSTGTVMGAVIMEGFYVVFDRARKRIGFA
Sequence of purified human autoBACE-2 (Q9Y5Z0 63-466): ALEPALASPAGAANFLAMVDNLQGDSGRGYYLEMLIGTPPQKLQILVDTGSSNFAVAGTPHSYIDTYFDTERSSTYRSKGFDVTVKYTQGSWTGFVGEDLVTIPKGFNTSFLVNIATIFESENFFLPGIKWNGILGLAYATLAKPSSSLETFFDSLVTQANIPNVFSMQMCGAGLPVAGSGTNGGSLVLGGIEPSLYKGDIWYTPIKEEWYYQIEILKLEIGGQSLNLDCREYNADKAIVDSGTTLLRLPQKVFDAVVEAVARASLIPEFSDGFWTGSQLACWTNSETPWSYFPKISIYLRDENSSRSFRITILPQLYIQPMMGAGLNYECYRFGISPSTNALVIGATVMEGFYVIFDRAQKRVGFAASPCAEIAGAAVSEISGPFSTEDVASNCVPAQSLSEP
Sequence of purified human Cathepsin-D (P07339 65-412): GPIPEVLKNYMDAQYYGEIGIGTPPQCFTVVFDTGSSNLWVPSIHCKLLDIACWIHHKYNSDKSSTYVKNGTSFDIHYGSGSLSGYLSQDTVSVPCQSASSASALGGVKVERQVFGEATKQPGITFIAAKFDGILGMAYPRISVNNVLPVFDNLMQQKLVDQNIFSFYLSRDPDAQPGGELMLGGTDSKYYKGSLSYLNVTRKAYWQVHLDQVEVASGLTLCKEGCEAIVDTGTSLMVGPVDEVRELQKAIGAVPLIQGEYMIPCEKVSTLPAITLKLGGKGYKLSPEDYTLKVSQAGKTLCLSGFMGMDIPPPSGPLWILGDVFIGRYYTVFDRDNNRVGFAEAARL

`CC#CCOc1cnc2c(Nc3cnc(F)c([C@]4(C)CS(=O)(=O)[C@@](CF)(C5CC5)C(N)=N4)c3)nccc2n1` [Example 13, 2-(but-2-yn-1-yloxy)-N-{5-[(3R,6S)-6-cyclopropyl-6-(fluoromethyl)-5-imino-3-methyl-1,1-dioxidothiomorpholin-3-yl]-6-fluoropyridin-3-yl}pyrido[3,4-b]pyrazin-5-amine]: the Ki in test [1] was 0.65 nM; in test [2], 1.1 nM; in test [3], 3380 nM. In addition, the half-inhibitory concentration (IC50) against BACE-1 was 6.6 nM.
For `C[C@@]1(c2cc(Nc3nccc4cc(Br)cnc34)ccc2F)CS(=O)(=O)[C@@](C)(C2CC2)C(N)=N1` [Example 17, 3-bromo-N-{3-[(3R,6S)-6-cyclopropyl-5-imino-3,6-dimethyl-1,1-dioxidothiomorpholin-3-yl]-4-fluorophenyl}-1,7-naphthyridin-8-amine], the inhibitory constant (Ki) in test [1] is 1.4 nM; in test [2] it was 0.41 nM; in test [3], 146 nM. This compound gave an IC50 at BACE-1 of 16 nM.
Taken in the same sequence, the figures for `CC#CCOc1cnc2c(Nc3cnc(F)c([C@]4(C)CS(=O)(=O)[C@@](CF)(C5CC5)C(N)=N4)c3)nccc2c1` [Example 11, 3-(but-2-yn-1-yloxy)-N-{5-[(3R,6S)-6-cyclopropyl-6-(fluoromethyl)-5-imino-3-methyl-1,1-dioxidothiomorpholin-3-yl]-6-fluoropyridin-3-yl}-1,7-naphthyridin-8-amine] were 0.91 nM, 7.5 nM, 857 nM and 4.1 nM.
Taken in the same sequence, the figures for `C[C@@]1(c2cc(Nc3nccc4cc(O)cnc34)ncc2F)CS(=O)(=O)[C@@](C)(C2CC2)C(N)=N1` [Example 25, (3R,6S)-5-amino-6-cyclopropyl-3-(5-fluoro-2-((3-hydroxy-1,7-naphthyridin-8-yl)amino)pyridin-4-yl)-3,6-dimethyl-3,6-dihydro-2H-1,4-thiazine 1,1-dioxide] were 0.89 nM, 0.59 nM, over 9400 nM and 4.9 nM.
Taken in the same sequence, the figures for `COc1cnc2c(Nc3ccc(F)c([C@]4(C)CS(=O)(=O)[C@@](CF)(C5CC5)C(N)=N4)c3)nccc2n1` [Example 8, N-{3-[(3R,6S)-6-cyclopropyl-6-(fluoromethyl)-5-imino-3-methyl-1,1-dioxidothiomoipholin-3-yl]-4-fluorophenyl}-2-methoxypyrido[3,4-b]pyrazin-5-amine] were 4.5 nM, 4.2 nM, 4010 nM and 91 nM.
Regarding `C[C@@]1(c2cc(Nc3nccc4cc(C#N)cnc34)ncc2F)CS(=O)(=O)[C@@](C)(C2CC2)C(N)=N1` [Example 4, 8-({4-[(3R,6S)-6-cyclopropyl-5-imino-3,6-dimethyl-1,1-dioxidothiomorpholin-3-yl]-5-fluoropyridin-2-yl}amino)-1,7-naphthyridine-3-carbonitrile], the Ki in test [1] was 3.8 nM; in test [2], 1.5 nM; in test [3], 6650 nM. On BACE-1, this compound gave an IC50 of 19 nM.
For `COc1cnc2c(Nc3cnc(F)c([C@]4(C)CS(=O)(=O)[C@@](C)(C5CC5)C(N)=N4)c3)nccc2c1` [Example 32, (3R,6S)-5-amino-6-cyclopropyl-3-(2-fluoro-5-((3-methoxy-1,7-naphthyridin-8-yl)amino)pyridin-3-yl)-3,6-dimethyl-3,6-dihydro-2H-1,4-thiazine 1,1-dioxide], in that order: 6.9 nM, 2.6 nM, 650 nM and 24 nM.
Taken in the same sequence, the figures for `CC#CCOc1cnc2c(Nc3cc([C@]4(C)CS(=O)(=O)[C@@](C)(C5CC5)C(N)=N4)c(F)cn3)nccc2c1` [Example 10, 3-(but-2-yn-1-yloxy)-N-{4-[(3R,6S)-6-cyclopropyl-5-imino-3,6-dimethyl-1,1-dioxidothiomorpholin-3-yl]-5-fluoropyridin-2-yl}-1,7-naphthyridin-8-amine] were 0.79 nM, 0.64 nM, over 9400 nM and 0.25 nM.
In the case of `COc1cnc2c(Nc3cc([C@]4(C)CS(=O)(=O)[C@@](C)(C5CC5)C(N)=N4)c(F)cn3)ncnc2c1` [Example 19, N-{4-[(3R,6S)-6-cyclopropyl-5-imino-3,6-dimethyl-1,1-dioxidothiomorpholin-3-yl]-5-fluoropyridin-2-yl}-7-methoxypyrido[3,2-d]pyrimidin-4-amine], the results for the Ki in test [1], in test [2] and in test [3] were 67 nM, 21 nM and 9300 nM, respectively. This compound also showed an IC50 at BACE-1 of 192 nM.
For `C[C@@]1(c2cc(Nc3nccc4cc(Br)cnc34)ncc2F)CS(=O)(=O)[C@@](C)(C2CC2)C(N)=N1` [Example 3, 3-bromo-N-{4-[(3R,6S)-6-cyclopropyl-5-imino-3,6-dimethyl-1,1-dioxidothiomorpholin-3-yl]-5-fIuoropyridin-2-yl}-1,7-naphthyridin-8-amine], in that order: 1.5 nM, 0.35 nM, 5530 nM and 25 nM.
For `C[C@@]1(c2cc(Nc3ncnc4cc(Br)cnc34)ncc2F)CS(=O)(=O)[C@@](C)(C2CC2)C(N)=N1` [Example 38, (3R,6S)-5-amino-3-(2-((7-bromopyrido[3,2-d]pyrimidin-4-yl)amino)-5-fluoropyridin-4-yl)-6-cyclopropyl-3,6-dimethyl-3,6-dihydro-2H-1,4-thiazine 1,1-dioxide], in that order: 8.2 nM, 3.8 nM, 3200 nM and 110 nM.
Taken in the same sequence, the figures for `C[C@@]1(c2cc(Nc3ncnc4cc(Br)cnc34)ccc2F)CS(=O)(=O)[C@@](C)(C2CC2)C(N)=N1` [Example 15, 7-bromo-N-{3-[(3R,6S)-6-cyclopropyl-5-imino-3,6-dimethyl-1,1-dioxidothiomorpholin-3-yl]-4-fluorophenyl}pyrido[3,2-d]pyrimidin-4-amine] were 1.8 nM, 0.73 nM, 321 nM and 3.4 nM.
As for `COc1cnc2c(Nc3ccc(F)c([C@]4(C)CS(=O)(=O)[C@@](C)(C5CC5)C(N)=N4)c3)ncnc2c1` [Example 20, (2S,5R)-2-cyclopropyl-5-(2-fluoro-5-((7-methoxypyrido[3,2-d]pyrimidin-4-yl)amino)phenyl)-3-imino-2,5-dimethylthiomorpholine 1,1-dioxide], the Ki in test [1] was 3.7 nM; in test [2] it was 2.4 nM; in test [3], 2160 nM. This compound returned an IC50 against BACE-1 of 5.3 nM.
